Consider one compound from ChEMBL document CHEMBL1140941 (J Med Chem, 2009).

Calls of active or inactive are those of the source. No cut-off for these calls is given here.

Data set [1] concerns the target T1, Estrogen receptor (Homo sapiens) (UniProt P03372).
T1 sequence (whole entry): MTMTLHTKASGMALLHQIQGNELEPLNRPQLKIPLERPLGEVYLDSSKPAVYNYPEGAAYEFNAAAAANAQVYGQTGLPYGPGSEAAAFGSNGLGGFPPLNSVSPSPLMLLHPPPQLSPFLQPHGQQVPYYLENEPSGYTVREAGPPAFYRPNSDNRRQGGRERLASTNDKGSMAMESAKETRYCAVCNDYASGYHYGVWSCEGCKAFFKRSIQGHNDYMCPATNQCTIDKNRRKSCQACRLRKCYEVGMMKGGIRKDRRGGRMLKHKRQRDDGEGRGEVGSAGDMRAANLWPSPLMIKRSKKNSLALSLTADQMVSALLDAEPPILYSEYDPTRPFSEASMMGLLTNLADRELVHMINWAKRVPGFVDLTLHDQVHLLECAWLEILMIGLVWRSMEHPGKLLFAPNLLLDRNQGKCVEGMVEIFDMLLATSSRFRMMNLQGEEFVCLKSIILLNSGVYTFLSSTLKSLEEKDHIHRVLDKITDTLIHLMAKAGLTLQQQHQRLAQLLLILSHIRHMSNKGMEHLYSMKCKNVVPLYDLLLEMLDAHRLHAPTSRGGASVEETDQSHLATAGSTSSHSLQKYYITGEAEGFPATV
The data set can be described thus: Agonist activity at gal-ERalpha expressed in african green monkey CV1 cells co-expressing MH100 up to 10 uM by luciferase reporter gene assay relative to control. In kind it is functional, cell-based. Particulars: CV-1. A general note: Reporter assays use an easily measured gene product as a stand-in for the process of interest.

The target of data set [2] is T2, Glucocorticoid receptor (Homo sapiens) (UniProt P04150).
T2 sequence (whole entry): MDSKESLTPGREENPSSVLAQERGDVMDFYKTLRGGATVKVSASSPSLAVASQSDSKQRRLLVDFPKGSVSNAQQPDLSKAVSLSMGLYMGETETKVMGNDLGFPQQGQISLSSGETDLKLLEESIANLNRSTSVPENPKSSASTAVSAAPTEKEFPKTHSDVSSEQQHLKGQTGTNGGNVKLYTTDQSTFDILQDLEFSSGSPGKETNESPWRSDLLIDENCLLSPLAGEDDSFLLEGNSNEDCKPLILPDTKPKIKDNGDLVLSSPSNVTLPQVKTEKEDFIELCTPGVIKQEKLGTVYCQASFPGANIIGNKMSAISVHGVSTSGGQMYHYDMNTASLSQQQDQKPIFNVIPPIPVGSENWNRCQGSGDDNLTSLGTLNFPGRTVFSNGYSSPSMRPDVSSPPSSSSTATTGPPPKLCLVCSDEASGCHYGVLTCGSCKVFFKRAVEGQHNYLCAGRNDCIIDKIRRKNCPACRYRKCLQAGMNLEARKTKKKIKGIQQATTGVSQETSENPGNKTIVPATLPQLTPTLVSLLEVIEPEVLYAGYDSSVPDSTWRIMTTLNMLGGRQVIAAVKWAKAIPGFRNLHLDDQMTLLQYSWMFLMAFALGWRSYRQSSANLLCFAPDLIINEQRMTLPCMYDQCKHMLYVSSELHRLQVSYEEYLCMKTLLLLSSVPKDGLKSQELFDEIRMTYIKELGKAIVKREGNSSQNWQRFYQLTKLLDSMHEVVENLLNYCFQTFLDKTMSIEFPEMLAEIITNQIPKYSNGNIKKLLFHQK
The data set can be described thus: Agonist activity at gal-GR expressed in african green monkey CV1 cells co-expressing MH100 up to 10 uM by luciferase reporter gene assay relative to control. The data set is classed as functional, cell-based. The following applies: CV-1.

Data set [3] concerns the target T3, Mineralocorticoid receptor (Homo sapiens) (UniProt P08235).
T3 sequence (whole entry): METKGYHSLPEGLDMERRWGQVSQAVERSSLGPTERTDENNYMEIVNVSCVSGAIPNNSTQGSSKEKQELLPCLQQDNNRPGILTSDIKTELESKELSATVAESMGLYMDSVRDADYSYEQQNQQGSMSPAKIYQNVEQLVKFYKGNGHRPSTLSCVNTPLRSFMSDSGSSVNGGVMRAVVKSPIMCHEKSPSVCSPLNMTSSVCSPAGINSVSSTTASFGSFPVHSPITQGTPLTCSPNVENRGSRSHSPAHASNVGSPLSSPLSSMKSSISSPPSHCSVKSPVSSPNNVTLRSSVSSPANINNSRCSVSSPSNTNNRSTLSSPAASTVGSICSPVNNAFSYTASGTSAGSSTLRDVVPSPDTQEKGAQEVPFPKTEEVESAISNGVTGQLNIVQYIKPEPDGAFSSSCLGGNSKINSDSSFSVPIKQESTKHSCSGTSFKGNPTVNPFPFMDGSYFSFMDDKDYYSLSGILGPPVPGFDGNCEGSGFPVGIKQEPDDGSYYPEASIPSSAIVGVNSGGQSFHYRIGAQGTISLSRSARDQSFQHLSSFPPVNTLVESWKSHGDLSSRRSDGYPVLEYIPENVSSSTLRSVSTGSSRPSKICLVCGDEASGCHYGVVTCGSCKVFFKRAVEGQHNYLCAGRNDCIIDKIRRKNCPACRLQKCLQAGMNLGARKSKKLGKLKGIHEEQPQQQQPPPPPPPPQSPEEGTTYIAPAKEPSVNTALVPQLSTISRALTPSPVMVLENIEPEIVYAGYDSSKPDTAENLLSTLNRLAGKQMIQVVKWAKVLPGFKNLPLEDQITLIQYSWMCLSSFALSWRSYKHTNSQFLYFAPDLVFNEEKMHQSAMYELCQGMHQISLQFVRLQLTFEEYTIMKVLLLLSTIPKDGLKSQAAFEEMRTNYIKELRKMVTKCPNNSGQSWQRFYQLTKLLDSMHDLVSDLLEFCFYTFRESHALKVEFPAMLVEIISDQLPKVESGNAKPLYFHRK
The data set can be described thus: Agonist activity at gal-MR expressed in african green monkey CV1 cells co-expressing MH100 up to 10 uM by luciferase reporter gene assay relative to control. The data set is classed as functional, cell-based. Particulars: CV-1.

The target of data set [4] is T3, Mineralocorticoid receptor (Homo sapiens). The data set can be described thus: Antagonist activity at gal-MR expressed in african green monkey CV1 cells co-expressing MH100 at 10 uM by luciferase reporter gene assay. The data set is classed as functional, cell-based. The following applies: CV-1.
Data set [5] is described as follows: Half life in CD rat at 3 mg/kg, po. The following applies: in vivo. Also noted: dose 3 mg/kg, route oral. The data set is classed as ADME, organism-based.
In data set [6] the test system is Rattus norvegicus. The data set can be described thus: Clearance in CD rat assessed as liver blood flow at 3 mg/kg. In kind it is ADME, organism-based. Details: dose 3 mg/kg. Particulars: in vivo.
The nature of data set [7]: Oral bioavailability in CD rat at 3 mg/kg. In kind it is ADME, organism-based. Particulars: in vivo.

As a reminder, the inhibition is the change of the read-out against control, counted positive when it falls. As a reminder, the half-life is how long it takes for the measured level to halve. A word on the bioavailability: it is dose-corrected exposure relative to a reference, in per cent. As to `CC(C)OC(=O)C1=CN(C(=O)c2ccc(F)c(F)c2)CC(C)(C)c2c1[nH]c1ccccc21` [TUROFEXORATE ISOPROPYL], the outcome in data set [1], in data set [2] and in data set [3] was inactive. This compound had an inhibition in data set [4] of 27%. Moreover, the half-life in data set [5] is 24.6 h. Besides, the LBF in data set [6] is 10%. Also, the bioavailability in data set [7] came out at 37.6%.
